In data set [1] the target is T1, Nuclear receptor ROR-gamma (Homo sapiens, UniProt P51449).
T1 sequence (P51449 whole entry): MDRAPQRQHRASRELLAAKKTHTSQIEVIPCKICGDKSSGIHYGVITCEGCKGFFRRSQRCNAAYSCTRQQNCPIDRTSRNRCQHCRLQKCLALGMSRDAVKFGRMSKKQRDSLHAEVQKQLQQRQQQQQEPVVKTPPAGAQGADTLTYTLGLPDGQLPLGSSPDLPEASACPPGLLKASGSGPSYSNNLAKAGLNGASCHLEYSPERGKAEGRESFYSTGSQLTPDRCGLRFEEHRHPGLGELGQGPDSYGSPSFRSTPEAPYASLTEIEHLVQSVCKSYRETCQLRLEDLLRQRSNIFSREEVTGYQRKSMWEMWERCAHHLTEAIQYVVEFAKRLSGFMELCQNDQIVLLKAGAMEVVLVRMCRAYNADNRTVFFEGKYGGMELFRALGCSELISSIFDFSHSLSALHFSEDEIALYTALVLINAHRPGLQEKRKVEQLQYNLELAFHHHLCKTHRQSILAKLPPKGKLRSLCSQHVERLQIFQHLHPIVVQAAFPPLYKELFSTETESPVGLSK
Briefly: Inverse agonist activity at N-terminal 6xHis-tagged human RORc ligand binding domain (241 to 486) expressed in bacterial expression system assessed as inhibition of SRC1 co-activator peptide recruitment after 3 hrs by TR-FRET analysis. The class given is functional.

A short description of data set [2]: Lipophilicity, log D of the compound at pH 7.4. The class given is physicochemical. The settings on record: buffer.
Data set [3] concerns the target T1, Nuclear receptor ROR-gamma. Briefly: Inverse agonist activity at GAL4-fused human RORc expressed in HEK293T cells assessed as suppression of basal transcriptional activity after 20 hrs by dual-glo luciferase reporter gene assay. The class given is functional, cell-based, HEK-293T.
The target in data set [4] is T2, Nuclear receptor ROR-beta (Homo sapiens, UniProt Q92753).
T2 sequence (Q92753 whole entry): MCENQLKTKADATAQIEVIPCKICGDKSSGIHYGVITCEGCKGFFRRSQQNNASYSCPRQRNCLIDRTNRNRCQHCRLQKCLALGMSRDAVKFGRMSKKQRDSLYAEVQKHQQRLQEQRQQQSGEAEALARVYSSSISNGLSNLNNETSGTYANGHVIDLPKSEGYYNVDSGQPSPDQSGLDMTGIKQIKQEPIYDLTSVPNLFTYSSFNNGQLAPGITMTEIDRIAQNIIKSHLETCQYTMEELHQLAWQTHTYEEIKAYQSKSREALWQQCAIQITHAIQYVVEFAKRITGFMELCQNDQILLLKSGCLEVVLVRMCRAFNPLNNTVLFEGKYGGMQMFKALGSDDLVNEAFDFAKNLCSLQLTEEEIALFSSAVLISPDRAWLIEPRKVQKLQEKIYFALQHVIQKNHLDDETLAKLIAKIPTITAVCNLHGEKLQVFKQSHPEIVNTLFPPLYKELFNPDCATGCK
In words: Inverse agonist activity at GAL4-fused human RORb expressed in HEK293T cells assessed as suppression of basal transcriptional activity after 20 hrs by dual-glo luciferase reporter gene assay. The class given is cell-based, HEK-293T.

Data set [5] has as its target T3, Oxysterols receptor LXR-alpha (Homo sapiens, UniProt Q13133).
T3 sequence (Q13133 whole entry): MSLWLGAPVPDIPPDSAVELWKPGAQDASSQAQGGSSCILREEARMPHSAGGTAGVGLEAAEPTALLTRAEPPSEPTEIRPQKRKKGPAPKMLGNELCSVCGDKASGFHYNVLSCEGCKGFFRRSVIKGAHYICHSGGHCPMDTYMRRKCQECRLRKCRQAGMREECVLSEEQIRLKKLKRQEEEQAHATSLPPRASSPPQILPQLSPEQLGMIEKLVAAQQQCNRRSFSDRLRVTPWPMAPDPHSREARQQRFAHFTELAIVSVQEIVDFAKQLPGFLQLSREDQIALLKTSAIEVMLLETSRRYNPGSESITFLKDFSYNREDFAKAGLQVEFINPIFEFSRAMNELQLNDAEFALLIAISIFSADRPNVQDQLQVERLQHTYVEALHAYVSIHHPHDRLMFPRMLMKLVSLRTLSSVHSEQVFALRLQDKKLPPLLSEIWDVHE
Briefly: Agonist activity at GAL4-fused human LXRalpha expressed in HEK293T cells assessed as activation of basal transcriptional activity after 20 hrs by dual-glo luciferase reporter gene assay. The class given is cell-based, HEK-293T.

The target of data set [6] is T4, Bile acid receptor (Homo sapiens) (UniProt Q96RI1).
T4 sequence (whole entry): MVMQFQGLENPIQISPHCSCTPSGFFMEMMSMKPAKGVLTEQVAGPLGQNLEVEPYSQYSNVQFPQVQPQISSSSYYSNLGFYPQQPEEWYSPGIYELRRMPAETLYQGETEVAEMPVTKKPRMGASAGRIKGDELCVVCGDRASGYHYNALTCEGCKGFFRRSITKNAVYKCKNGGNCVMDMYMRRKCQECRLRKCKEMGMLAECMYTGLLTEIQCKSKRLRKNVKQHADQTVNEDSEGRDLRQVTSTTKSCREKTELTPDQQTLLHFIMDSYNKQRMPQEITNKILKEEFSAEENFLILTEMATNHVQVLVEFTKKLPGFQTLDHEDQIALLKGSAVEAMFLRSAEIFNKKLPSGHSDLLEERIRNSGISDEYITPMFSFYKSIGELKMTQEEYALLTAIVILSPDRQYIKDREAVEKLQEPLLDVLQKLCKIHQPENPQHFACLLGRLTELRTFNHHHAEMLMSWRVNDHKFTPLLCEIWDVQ
In words: Antagonist activity at GAL4-fused human FXR expressed in HEK293T cells assessed as inhibition of T0901317-induced basal transcriptional activity up to 10 uM after 20 hrs by dual-glo luciferase reporter gene assay. The class given is cell-based. The settings on record: HEK-293T.

Data set [7] concerns the target T5, Nuclear receptor subfamily 1 group I member 2 (Homo sapiens, UniProt O75469).
T5 sequence (O75469 whole entry): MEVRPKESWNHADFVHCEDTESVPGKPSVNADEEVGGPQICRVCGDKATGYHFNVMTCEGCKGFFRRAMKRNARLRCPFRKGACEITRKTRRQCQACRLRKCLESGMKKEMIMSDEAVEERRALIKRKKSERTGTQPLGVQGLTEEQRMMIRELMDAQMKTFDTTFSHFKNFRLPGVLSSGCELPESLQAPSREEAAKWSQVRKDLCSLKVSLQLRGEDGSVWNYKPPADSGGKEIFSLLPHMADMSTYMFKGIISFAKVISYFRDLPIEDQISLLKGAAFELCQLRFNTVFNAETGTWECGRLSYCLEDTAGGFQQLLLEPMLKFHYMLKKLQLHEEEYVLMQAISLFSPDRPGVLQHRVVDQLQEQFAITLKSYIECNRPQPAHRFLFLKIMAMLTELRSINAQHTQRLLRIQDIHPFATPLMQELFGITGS
In words: Antagonist activity at GAL4-fused human PXR expressed in HEK293T cells assessed as inhibition of T0901317-induced basal transcriptional activity up to 10 uM after 20 hrs by dual-glo luciferase reporter gene assay. The class given is cell-based. The settings on record: hek-293t.

Another data set concerns PBMC. In words: Antiinflammatory activity in human PBMC assessed as inhibition of IL-17 production after 48 hrs by Sandwich ELISA. The class given is functional, cell-based.

SMILES strings stand for the structures. Calls of active or inactive are those of the source. No cut-off for these calls is given here.

Experimental findings from ChEMBL document CHEMBL3596163, “Discovery of imidazo[1,5-a]pyridines and -pyrimidines as potent and selective RORc inverse agonists” (Bioorg Med Chem Lett, 2015) are described below.

Take `O=C(O)c1ccc(-c2nc(C(=O)c3c(Cl)cccc3C3CC3)n3c2CCCC3)c(F)c1`: the 50% effective concentration (EC50) in data set [1] is 27 nM; in data set [3], 26 nM; in data set [4], over 10 µM; in data set [5], over 10 µM; in the data set on PBMC, 300 nM. In data set [2], the logD was 1.6. Besides, in data set [6], the inhibition entry was “inactive”. In data set [7], the “inhibition (INH)” value is “Not Active”.

For `O=C(O)c1ccc(-c2nc(C(=O)c3c(Cl)cccc3C(F)(F)F)n3c2CCCC3)c(F)c1`, the EC50 in data set [1] is 32 nM; in data set [3], 36 nM; in data set [4], over 10 µM; in data set [5] it was over 10 µM; in the data set with PBMC it was 230 nM. In data set [2], this compound came in with a log distribution coefficient (logD) of 1.3. Besides, in data set [6], the inhibition entry was “inactive”. For the same compound, the “inhibition (INH)” value in data set [7] is recorded as “Not Active”.

As to `O=C(O)c1ccc(-c2nc(C(=O)c3c(Cl)cccc3C(F)(F)F)n3ccccc23)c(F)c1`, the EC50 in data set [1] was 9 nM; in data set [3] it was 10 nM; in data set [4] it was over 10 µM; in data set [5], over 10 µM; with PBMC it was 120 nM. Further, the logD in data set [2] turned out to be 1.8. The inhibition entry in data set [6] was “inactive”. Further, the “inhibition (INH)” value in data set [7] was “Not Active”.

For the compound `O=C(O)c1ccc(-c2nc(C(=O)c3c(Cl)cccc3C3CC3)n3cccnc23)cc1O`, the concentration giving a half-maximal response (EC50) is 2 nM in data set [1]; 13 nM in data set [3]; over 10 µM in data set [4]; over 10 µM in data set [5]; 30 nM in the data set on PBMC. In addition, the logD in data set [2] is 1.5. In data set [6], the inhibition result is “inactive”. In data set [7], the “inhibition (INH)” value is reported as “Not Active”.

On to `O=C(O)c1ccc(-c2nc(C(=O)c3c(Cl)cccc3C(F)(F)F)n3ccccc23)cc1O`, for which the EC50 in data set [1] was 2 nM; in data set [3], 4 nM; in data set [4], over 10 µM; in data set [5], over 10 µM; with PBMC it was 17 nM. The compound also displayed a log distribution coefficient (logD) in data set [2] of 2.5. The inhibition entry in data set [6] is “inactive”. In data set [7], the “inhibition (INH)” value is given as “Not Active”.

In turn, `O=C(O)c1ccc(-c2nc(C(=O)c3c(Cl)cccc3C(F)(F)F)n3ccccc23)cc1` registered a logD in data set [2] of 1.5. The 50% effective concentration (EC50) in data set [4] is over 10 µM; in data set [5], over 10 µM; with PBMC, 230 nM. The inhibition result in data set [6] is “inactive”. Moreover, the “inhibition (INH)” value in data set [7] is reported as “Not Active”.
